From patent US12590130B2, “Bipartite molecules and uses thereof in treating diseases associated with abnormal protein aggregates” (ACADEMIA SINICA, priority 2014, dated 2026)

How the values were obtained:
[1] = Solubility of therapeutic peptides; assay type: physicochemical
Protocol: In this study, the rational design was tested for HD. Several bipartite therapeutic peptides containing 8 consecutive arginines (8R) attached to a stretch of consecutive glutamines (polyQ) were synthesized and their biological activity of decreasing the aggregation propensity of the mHtt protein was investigated. The length of the polyQ of these bipartite peptides was 5 (8R5Q), 10 (8R10Q), 15 (8R15Q) or 20 (8R20Q) (Table 2).

109QmHtt aggregates = experiment: TIRF microscopy of mHtt aggregates in Neuro2a cells; assay type: cell-based; settings: Neuro2a cells expressing 109QmHtt
Protocol: FIG. 3. Diagrams showing the co-localization of tested bipartite peptides with the 109QmHtt aggregates. Panel A: Structure of TAMRA-labeled 8R10Q used in this study. Panel B: Epifluorescence micrographs of Neuro2a cells expressing 109QmHtt treated with TAMRA-8R10Q (8R10Q) at various time points. Note the co-localization of 8R10Q and 109QmHttGFP aggregates (GFP) from 8-24 hours (arrows). Scale bar: 10 μm. Panel C: TIRF micrographs of the Neuro2a expressing 109QmHtt treated with water or peptides as indicated at various time points. Note the decrease in aggregate size in 8R10Q and 8R15Q-treated cells. Panel D: Quantitation of the size of individual aggregates in Neuro2a at 8 hours (left) and 24 hours (right) after peptide treatment. […] Panel E: Quantitation of the number of aggregates in 20 Neuro2a cells at 12 hours (left) and 24 hours (right) after peptide treatment. Both the 8R10Q and 8R15Q increased the number of aggregates. Statistics performed with one way ANOVA. **p<0.01; ***p<0.001.
To probe into the details of the effect of peptide on the mHtt aggregates, the parameters of the mHtt aggregates were visualized and measured using the Total Internal Reflection Fluorescence (TIRF) microscopy. […] The number of aggregates in 20 cells was also calculated. 8R10Q and 8R15Q increased the number of the aggregates by 4-5 fold (FIG. 3, panel E).

109QmHtt = experiment: Western blot of RIPA-soluble and -insoluble fractions of Neuro2a lysates; assay type: cell-based; settings: peptide-treated samples
Protocol: FIG. 4. Testing the ability of therapeutic peptides to decrease mHtt aggregation in Neuro2a cells overexpressing mHtt. Panel A: Filter trap assays and corresponding quantitation of cells (panel B) treated as indicated at 8 hours (T1), 24 hours (T2), or both (T1+2) after transfection with the 109QmHtt construct. […] Panel C: Western blots and quantitation (panel D) of RIPA-soluble (sol) and -insoluble (ins) fractions of Neuro2a cells overexpressing 25QHtt or 109QmHtt and treated as indicated. […] Panel E: Western blot of the 109QmHtt in cells treated as indicated. Note that MG132 blocked the effect of 8R10Q peptide with respect to decreasing insoluble 109QmHtt. Panel F: Quantitation of ratio of 109QmHtt in cells treated MG132 (+) over DMSO (−) in relationship to peptides. Statistical analysis conducted with one way ANOVA, *<0.05, **<0.01, ***<0.001, ns: not significant.
For further characterization, Neuro2a lysates were separated into the RIPA-soluble (sol) and insoluble (ins) fractions ([…]). 8R10Q peptide decreased the level of mHtt in both the soluble and insoluble fractions as compared with water, 8R, or the scrambled (s8R10Q) control (FIG. 4, panel D). […]

[2] = tested on: Neuro2a cells expressing 109QmHtt; experiment: Cell growth curve of Neuro2a cells expressing 109QmHtt; assay type: cell-based, mouse; settings: 109QmHtt with or without 12.5 μM H2O2; vs 8R or scrambled control
Protocol: (§1) FIG. 5. Therapeutic effect of 8R10Q and 8R15Q in 109QmHtt-expressing cells. Panel A: Cell viability assay by MTT in Neuro2a cells expressing 25QHtt (left) or 109QmHtt (right) treated with H2O2 at 50 μM and the indicated peptide. Panel B: Cell growth curve of Neuro2a cells expressing 25QHtt or 109QmHtt treated with indicated peptide. The cells in right subpanel were further treated with H2O2 at 12.5 μM 16 hours after transfection. 109QmHtt cells growth was slower than that of the 25QHtt cells. 8R10Q treatment rescued the slow growth of Neuro2a cells by 109QmHtt with or without H2O2. Panel C: Micrographs of the phase contrast and fluorescent images of retinoic acid-differentiated Neu2a cells expressing GFP-25QHtt or GFP-109QmHtt (GFP) treated with the indicated peptide. Note the neurites of the differentiated cells. Panel D: Quantitation of the percentage of differentiated cells with neurites. Fewer 109QmHtt-expressing cells had neurites vs. 25QHtt-expressing cells. […] The experiments were conducted in triplicate and repeated twice. Statistical analysis was performed with one way ANOVA, *p<0.05; **p<0.01; ***p<0.001, ns: not significant.
The expression of 109QmHtt reduced the growth of Neuro2a cells, and so did the lower levels of H2O2 (12.5 μM) (FIG. 5, panel B).

[3] = tested on: Neuro2a cells expressing 109QmHtt; experiment: Retinoic acid-induced neurite outgrowth; assay type: cell-based, mouse; settings: 109QmHtt cells; vs water or scrambled control
Protocol: as §1
Retinoic acid (RA) induced the differentiation of Neuro2a cells with neurite outgrowth. 109QmHtt decreased the number of cells bearing RA-induced neurites relative to 25QHtt (FIG. 5, panels C and D).

Substance: H-RRRRRRRRWDQQQQQQQQQQ-NH2 [Peptide 8R10Q, NH2-(R)8-W-D-(Q)10-CONH2]
- Solubility (DMEM/10% FBS) ([1]; DMEM/10% FBS): Soluble
- solubility in water or culture medium ([1]; water or culture medium): highly soluble
- average size of the aggregates (109QmHtt aggregates): 0.3 μm^2
- ratio of the MG132:DMSO 109QmHtt (109QmHtt): much higher
- cell growth [2]: ameliorated the reduction in growth
- RA-induced neurite outgrowth [3]: significantly reversed the defect in neurite outgrowth
